Results reported in US10626107B2, “Crystal form, salt type of substituted 2-hydro-pyrazole derivative and preparation method therefor” (CHIA TAI TIANQING PHARMACEUTICAL GROUP CO., LTD., priority 2016, dated 2020).
pIC50: −log10 of the molar value.

Assays:
[1] = system: MCF-7 breast cancer cells; experiment: Inhibition assay of the A crystal form of WX_1 on MCF-7 breast cancer cell proliferation (CellTiter-Glo); format: cell-based; conditions: Homo sapiens, MCF7, 144 h; MCF-7 cells, 6 days
Method: RPMI 1640 medium, fetal bovine serum and penicillin/streptomycin as antibiotics were purchased from Promega (Madison, Wis.). The MCF-7 cell line was purchased from the European Collection of Authenticated Cell Cultures (ECACC). Envision MultiLabel Plate Reader (PerkinElmer).
MCF-7 cells were seeded in a black 384-well plate with 45 μL of cell suspension (containing 200 MCF-7 cells) per well. The cell plate was placed in a carbon dioxide incubator for overnight culture.
The test compounds were diluted 3 times to the 10th concentration with Bravo, i.e., diluted from 10 μM to 0.508 nM, and a duplicate-well experiment was set. The medium was added to the middle plate in an amount of 49 μL per well. The gradient-diluted compounds were transferred in an amount of 1 μL per well to the middle plate according to the corresponding positions, and the mixture was mixed evenly and transferred to the cell plate in an amount of 5 μL per well. The cell plate was incubated in a carbon dioxide incubator for 6 days.
Promega CellTiter-Glo reagent was added to the cell plate in an amount of […] per well, and incubated for 10 minutes at room temperature to stabilize the luminescence signal. Reading was performed using a PerkinElmer Envision Multilabel Plate Reader.

[2] = Solubility study at different pHs; format: physicochemical; conditions: 37° C.; for solubility at 4 h / solubility at 24 h: thermodynamic from solid; for Solubility 4 hrs / Solubility (24 hrs): LOQ = 0.0003 mg/mL
Method: A magnet was added to the above suspension, which was placed on a magnetic stirrer for stirring (temperature 37° C., dark). After respectively stirring for 4 hours and 24 hours, samples were taken and centrifuged, and the residual solids in the lower layers were tested by XRPD. The samples in the upper layers were filtered with a filtration membrane. The concentrations of the filtrates were determined by HPLC and the pHs were measured. After the HPLC system was equilibrated with a mobile phase, the analysis of the samples started.

[3] = Study on the polymorphs of compound WX_1 (XRPD after treatment in solvents); format: physicochemical
Description: The solution was centrifuged to obtain a precipitate, which was dried and then subjected to an XRPD detection.

[4] = Solubility tests in different vehicles (HPLC); format: physicochemical; conditions: 26 °C, thermodynamic from solid, room temperature 25 to 27° C.
Method: Samples (about 2 mg) (if the sample was a salt, the required amount of the salt was calculated according to the salt factor in accordance with the criterion that the compound of formula (I) was 2 mg) were weighed respectively and added to a 1.5 mL glass vial. Different vehicles (1 mL) were then added respectively. The above-mentioned suspension was placed on a magnetic stirrer for stirring (room temperature 25 to 27° C.). After stirring for 24 hours, samples were taken. The samples were first centrifuged, and the supernatants were taken. After appropriate dilution according to the situation of the dissolution, the concentrations were determined by HPLC. The results were as follows:
Notes: • FaSSIF: to simulate the intestinal fluid in the small intestine of human in a hunger state before meal; • FeSSIF: to simulate the intestinal fluid in the small intestine of human in a full state after meal; • SGF: to simulate the gastric juice in the empty stomach of human in a hunger state

[5] = Study on the hygroscopicity (dynamic vapor sorption); format: physicochemical; conditions: 25° C. and 80% RH
Method: Model of instrument: SMSDVS Advantage dynamic vapor sorption analyzer
Test conditions: A sample (10 to 15 mg) was placed in a DVS sample pan for testing.
DVS parameters: • Temperature: 25° C. • Balance: dm/dt=0.01%/min (minimum: 10 min, maximum: 180 min) • Drying: drying for 120 min at 0% RH • Test gradient of RH (%): 10% • Test gradient range of RH (%): 0%-90%-0%

[6] = aqueous buffer, pH 3.8 buffer (pH 3.80)
[7] = aqueous buffer, pH 4.5 buffer (pH 4.48)
[8] = aqueous buffer, pH 5.5 buffer (pH 5.52)
[9] = aqueous buffer, pH 6.0 buffer (pH 6.04)
[10] = simulated gastric fluid, 0.01N HCl (pH 1.99)
[11] = simulated gastric fluid, 0.1N HCl (pH 1.00)

Structure (SMILES): CC(C)c1c2cc(-c3nc(Nc4ccc(N5CCNCC5)cn4)ncc3F)ccc2nn1C.O=C(O)/C=C\C(=O)O [A crystal form of compound WX_1]
- pIC50 [1]: 7.15
- Description of Solubility ([2]; 0.01N HCl (pH 1.99)): slightly soluble
- Description of Solubility ([2]; 0.1N HCl (pH 1.00)): slightly soluble
- solubility at 4 h [2, 6]: > 2500 µg/mL
- solubility at 24 h [2, 6]: > 2500 µg/mL
- solubility at 4 h [2, 7]: > 2500 µg/mL
- solubility at 24 h [2, 7]: > 2500 µg/mL
- solubility at 4 h [2, 8]: 110 µg/mL
- solubility at 24 h [2, 8]: 138 µg/mL
- solubility at 4 h [2, 9]: 2 µg/mL
- solubility at 24 h [2, 9]: 2 µg/mL
- Description of Solubility ([2]; pH 3.8 buffer (pH 3.80)): slightly soluble
- Description of Solubility ([2]; pH 4.5 buffer (pH 4.48)): slightly soluble
- Description of Solubility ([2]; pH 5.5 buffer (pH 5.52)): sparingly soluble
- Description of Solubility ([2]; pH 6.0 buffer (pH 6.04)): practically insoluble
- Description of Solubility ([2]; pH 6.8 buffer (pH 6.80)): practically insoluble
- Solubility 4 hrs ([2]; pH 6.8 buffer (pH 6.80)): <LOQ*
- Solubility (24 hrs) ([2]; pH 6.8 buffer (pH 6.80)): <LOQ
- Description of Solubility ([2]; pH 7.4 buffer (pH 7.39)): practically insoluble
- Solubility 4 hrs ([2]; pH 7.4 buffer (pH 7.39)): <LOQ
- Solubility (24 hrs) ([2]; pH 7.4 buffer (pH 7.39)): <LOQ
- Description of Solubility ([2]; purified water (pH 6.05)): slightly soluble
- solubility at 4 h [2, 10]: > 2500 µg/mL
- solubility at 24 h [2, 10]: > 2500 µg/mL
- solubility at 4 h [2, 11]: > 2500 µg/mL
- solubility at 24 h [2, 11]: > 2500 µg/mL
- solubility at 4 h ([2]; purified water (pH 6.05)): 1110 µg/mL
- solubility at 24 h ([2]; purified water (pH 6.05)): 1220 µg/mL
- Crystal form ([3]; acetone, 40° C. in the dark for 2 days): A crystal form
- Crystal form ([3]; acetone-water (1:2), Volatilization of supernatant): amorphous (Volatilization)
- Crystal form ([3]; ethanol, 40° C. in the dark for 2 days): A crystal form
- Crystal form ([3]; ethanol-water (3:1), Volatilization of supernatant): amorphous (Volatilization)
- Crystal form ([3]; ethyl acetate, 40° C. in the dark for 2 days): A crystal form
- Crystal form ([3]; isopropanol, 40° C. in the dark for 2 days): A crystal form
- Crystal form ([3]; isopropanol-water (1:1), Volatilization of supernatant): A crystal form
- Crystal form ([3]; methanol, 40° C. in the dark for 2 days): A crystal form
- Crystal form ([3]; methanol-water (3:1), 40° C. in the dark for 2 days): A crystal form
- solubility at 24 h ([4]; simulated gastric fluid, SGF, read-out: Solubility SGF): > 2000 µg/mL
- solubility at 24 h ([4]; FaSSIF, read-out: Solubility FaSSIF): 23 µg/mL
- solubility at 24 h ([4]; FeSSIF, read-out: Solubility FeSSIF): 1600 µg/mL
- solubility at 24 h ([4]; water, water, H2O, read-out: Solubility H2O): 1140 µg/mL
- hygroscopic weight gain [5]: 1.48%
